This is an account of results in US20030044399A1, “Method of treatment” (SmithKline Beecham Corporation, priority 1998, published 2003).

Sequence of Cruzain (P25779 123-337): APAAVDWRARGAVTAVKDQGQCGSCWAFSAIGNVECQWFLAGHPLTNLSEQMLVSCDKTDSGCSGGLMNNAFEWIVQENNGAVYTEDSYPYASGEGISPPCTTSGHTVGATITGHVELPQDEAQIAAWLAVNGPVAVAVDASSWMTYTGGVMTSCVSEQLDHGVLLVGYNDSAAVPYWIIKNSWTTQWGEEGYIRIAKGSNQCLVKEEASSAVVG
Sequence of Rhodazain (Q95PM0 entry or part of it): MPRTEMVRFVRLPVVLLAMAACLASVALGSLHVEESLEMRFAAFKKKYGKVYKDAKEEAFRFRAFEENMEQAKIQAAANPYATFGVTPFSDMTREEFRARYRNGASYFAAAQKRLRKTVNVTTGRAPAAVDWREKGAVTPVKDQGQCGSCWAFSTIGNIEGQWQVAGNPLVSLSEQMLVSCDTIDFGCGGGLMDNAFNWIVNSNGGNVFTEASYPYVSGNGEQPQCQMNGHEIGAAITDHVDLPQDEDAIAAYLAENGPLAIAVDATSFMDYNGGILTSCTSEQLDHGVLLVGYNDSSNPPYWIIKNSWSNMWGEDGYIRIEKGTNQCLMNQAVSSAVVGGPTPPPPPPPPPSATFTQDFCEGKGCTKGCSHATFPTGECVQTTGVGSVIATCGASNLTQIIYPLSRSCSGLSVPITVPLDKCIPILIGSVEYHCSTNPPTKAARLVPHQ

One assay concerns the target Cruzain (Trypanosoma cruzi, UniProt P25779). Kind of assay: Cysteine protease inhibition, progress curve method, cruzain. To be noted: 4 uM Ac-Lys-Glu-Lys-Leu-Arg-AMC, 100 mM Na acetate pH 5.5, 5 mM cysteine; read-out: Cruzain Ki. Type of assay: biochemical. As to the method:
(§1) Standard assay conditions for the determination of kinetic constants used 10 uM fluorogenic peptide substrate, Cbz-Phe-Arg-AMC for the cysteine proteases from Leishmania spp and Schistosoma Mansoni, Cbz-Leu-Arg-AMC for the cysteine proteases from Plasmodium falciparum and Trypanosoma brucei rhodesiensi, and Ac-Lys-Glu-Lys-Leu-Arg-AMC (4 uM final substrate concentration) for the cysteine protease from Trypoanosoma cruzi, and were determined in 100 mM Na acetate at pH 5.5 containing 5 mM cysteine. Stock substrate solutions were prepared at concentrations of […] in DMSO with 10 uM (4 uM for Ac-Lys-Glu-Lys-Leu-Arg-AMC) final substrate concentration in the assays. The final DMSO concentration was 2% and the final volume was 100 uL. All assays were conducted at ambient temperature. Product progress curves were generated over 20 to 30 minutes following formation of AMC product.
(§2) Potential inhibitors were evaluated using the progress curve method. Assays were carried out in the presence of variable concentrations of test compound. Reactions were initiated by addition of enzyme to buffered solutions of inhibitor and substrate. Data analysis was conducted according to one of two procedures depending on the appearance of the progress curves in the presence of inhibitors. For those compounds whose progress curves were linear, apparent inhibition constants (Ki,app) were calculated according to equation 1 (Brandt et al., Biochemitsry, 1989, 28, 140):
(§3) v=VmA/[Ka(1+I/Ki,app)+A] (1)
(§4) Where v is the velocity of the reaction with maximal velocity Vm, A is the concentration of substrate with Michaelis constant of Ka, and I is the concentration of inhibitor.
(§5) [AMC]=vsst+(v0−vss)[1−exp (−kobst)]/kobs (2)
(§6) Where [AMC] is the concentration of product formed over time t, v0 is the initial reaction velocity and vss is the final steady state rate. Values for kobs were then analyzed as a linear function of inhibitor concentration to generate an apparent second order rate constant (kobs/inhibitor concentration or kobs/[I]) describing the time-dependent inhibition. A complete discussion of this kinetic treatment has been fully described (Morrison et al., Adv. Enzymol. Relat. Areas Mol. Biol., 1988, 61, 201).
(§7) Exemplary inhibition data for the compounds used in the present method collected in accordance with the above-described procedure are listed in Table I.
For `COc1cccc2oc(C(=O)N[C@@H](CC(C)C)C(=O)NC3CCCN(S(=O)(=O)c4cccc[n+]4[O-])CC3=O)c(C)c12` (stereo partly drawn) [Example 209, 4-Methoxy-3-methyl-benzofuran-2-carboxylic acid {(S)-3-methyl-1-[3-oxo-1-(1-oxy-pyridine-2-sulfonyl)-azepan-4-ylcarbamoyl]-butyl}-amide], the Ki – broadly, the dissociation constant of the complex between target and ligand, obtained from inhibition or displacement – was 8.9 nM.

Regarding `COc1ccc2oc(C(=O)N[C@@H](CC(C)C)C(=O)N[C@H]3CCCN(S(=O)(=O)c4ccccc4F)CC3=O)cc2c1` [Example 92, 5-Methoxy-benzofuran-2-carboxylic acid-{(S)-1-[1-(2-fluoro-benzenesulfonyl)-3-oxo-azepan-4-ylcarbamoyl]-3-methyl-butyl}-amide], the Ki is 49 nM. Consider `CC(C)C[C@@H](NC(=O)c1ccc(Br)o1)C(=O)N[C@@H]1CCCN(S(=O)(=O)c2cccc[n+]2[O-])CC1=O` [Example 47], for which the Ki turned out to be 13 nM. On the same count and under the same terms, the figure for `CC(C)C[C@@H](NC(=O)c1cc2cc(F)ccc2o1)C(=O)N[C@H]1CCCN(S(=O)(=O)c2cccc[n+]2[O-])CC1=O` (single isomer, unassigned) [Example 194] is 8.7 nM; for `CC(C)C[C@H](NC(=O)c1cc2ccccc2o1)C(=O)NC1CCCN(S(=O)(=O)c2cccc(F)c2)CC1=O` (stereo partly drawn) [Example 183, Benzofuran-2-carboxylic acid {(S)-1-[-(3-fluoro-benzensulfonyl)-3-oxo-azepan-4-ylcarbamoyl]-3-methyl-1-butyl}-amide] it is 7.1 nM.

For the next assay, the target named is Rhodazain (Trypanosoma brucei rhodesiense, UniProt Q95PM0). As to the kind of experiment: Cysteine protease inhibition, progress curve method, rhodazain. Type of assay: biochemical, Trypanosoma brucei rhodesiensi. To be noted: 10 uM Cbz-Leu-Arg-AMC, 100 mM Na acetate pH 5.5, 5 mM cysteine; read-out: Rhodazain Ki. Here is the method:
as §1, §2, §3, §4, §5, §6, §7
`COc1cccc2oc(C(=O)N[C@@H](CC(C)C)C(=O)NC3CCCN(S(=O)(=O)c4cccc[n+]4[O-])CC3=O)c(C)c12` (stereo partly drawn) [Example 209, 4-Methoxy-3-methyl-benzofuran-2-carboxylic acid {(S)-3-methyl-1-[3-oxo-1-(1-oxy-pyridine-2-sulfonyl)-azepan-4-ylcarbamoyl]-butyl}-amide]: the Ki came out at 4.1 nM. In the case of “Naphthyridine-2-carboxylic acid {(S)-3-methyl-1-[3-oxo-1-(pyridine-2-sulfonyl)-azepan-4-ylcarbamoyl]-butyl}-amide [Example 177]”, the Ki was found to be 9 nM.

Still in this assay, the particulars now being: Rhodazain Ki (nM), 10 uM Cbz-Leu-Arg-AMC, 100 mM Na acetate pH 5.5, 5 mM cysteine.
As to `COc1ccc2oc(C(=O)N[C@@H](CC(C)C)C(=O)N[C@H]3CCCN(S(=O)(=O)c4ccccc4F)CC3=O)cc2c1` [Example 92, 5-Methoxy-benzofuran-2-carboxylic acid-{(S)-1-[1-(2-fluoro-benzenesulfonyl)-3-oxo-azepan-4-ylcarbamoyl]-3-methyl-butyl}-amide], affinity was put at a Ki of 6.3 nM. Turning to `CC(C)C[C@@H](NC(=O)c1ccc(Br)o1)C(=O)N[C@@H]1CCCN(S(=O)(=O)c2cccc[n+]2[O-])CC1=O` [Example 47], the Ki amounted to 2.7 nM. Take `CC(C)C[C@@H](NC(=O)c1cc2cc(F)ccc2o1)C(=O)N[C@H]1CCCN(S(=O)(=O)c2cccc[n+]2[O-])CC1=O` (single isomer, unassigned) [Example 194]: the Ki was 6.7 nM.

`CC(C)C[C@H](NC(=O)c1cc2ccccc2o1)C(=O)NC1CCCN(S(=O)(=O)c2cccc(F)c2)CC1=O` (stereo partly drawn) [Example 183, Benzofuran-2-carboxylic acid {(S)-1-[-(3-fluoro-benzensulfonyl)-3-oxo-azepan-4-ylcarbamoyl]-3-methyl-1-butyl}-amide] showed a Ki of 6.5 nM.

As for `Cc1c(C(=O)N[C@H](CC(C)C)C(=O)N[C@H]2CCCN(S(=O)(=O)c3cccc[n+]3[O-])CC2=O)oc2cc(F)ccc12` [Example 193, 6-Fluoro-3-methyl-benzofuran-2-carboxylic acid {(S)-3-methyl-1-[3-oxo-1-(1-oxy-pyridine-2-sulfonyl)-azepan-4-ylcarbamoyl]-butyl}-amide], the Ki turned out to be 8.1 nM.

`CCc1c(C(=O)N[C@@H](CC(C)C)C(=O)N[C@H]2CCN(S(=O)(=O)c3cccc[n+]3[O-])CCC2=O)oc2ccccc12` [Example 202, 3-Ethyl-benzofuran-2-carboxylic acid {(S)-3-methyl-1-[3-oxo-1-(1-oxy-pyridine-2-sulfonyl)-azepan-4-ylcarbamoyl]-butyl}-amide] gave an inhibitory constant (Ki) of 8.7 nM. As to `COc1ccc2oc(C(=O)N[C@@H](CC(C)C)C(=O)N[C@H]3CCCN(S(C)(=O)=O)CC3=O)cc2c1` [Example 81, 5-Methoxy-benzofuran-2-carboxylic acid [(S)-1-(1-methanesulfonyl-3-oxo-azepan-4-ylcarbamoyl)-3-methyl-butyl]-amide], the affinity, expressed as Ki, was 7.2 nM. For the molecule `CC(C)C[C@@H](NC(=O)c1cnc2ccccc2n1)C(=O)N[C@@H]1CCCN(S(=O)(=O)c2cccc[n+]2[O-])CC1=O` [Example 101, Quinoxaline-2-carboxylic acid {(S)-3-methyl-1-[3-oxo-1-(1-oxy-pyridine-2-sulfonyl)-azepan-4-ylcarbamoyl]-butyl}amide], affinity was put at a Ki of 11 nM.

In the case of `CC(C)C[C@@H](NC(=O)c1cnc2ccccc2c1)C(=O)N[C@@H]1CCCN(S(=O)(=O)c2ccccn2)CC1=O` [Example 27], affinity was put at a Ki of 13 nM. As to `O=C(N[C@H](Cc1ccccc1)C(=O)N[C@@H]1CCCN(S(=O)(=O)c2ccccn2)CC1=O)c1ccc2ccccc2n1` (stereo in doubt) [Example 180, Quinoline-2-carboxylic acid {(S)-1-[3-oxo-1-(pyridine-2-sulfonyl)-azepan-4-ylcarbamoyl]-2-phenyl-ethyl}-amide], the affinity, expressed as Ki, was 9.3 nM. `COc1ccc(C(=O)NC(CC(C)C)C(=O)N[C@@H]2CCCN(S(C)(=O)=O)CC2=O)cc1OC` (stereo partly drawn) [Example 113] had a Ki of 7.8 nM. The same measure, in the same setting: with `COc1ccc(CC(=O)N[C@@H](CC(C)C)C(=O)NC2CCCN(S(=O)(=O)c3ccccn3)CC2=O)cc1OCc1ccccc1` (stereo partly drawn) [Example 123] the figure was 31 nM; with `COc1ccc(CCCCC(=O)NC(CC(C)C)C(=O)NC2CCCN(S(=O)(=O)c3ccccn3)CC2=O)cc1` [Example 122, (S)-2-[5-(4-Methoxy-phenyl)-pentanoylamniol-4-methyl-pentanoic acid [3-oxo-1-(pyridine-2-sulfonyl)-azepan-4-yl[-amide], 8.8 nM. On the same count and under the same terms, with `CC(C)C[C@@H](NC(=O)c1ccc(-c2ccc([N+](=O)[O-])cc2)o1)C(=O)N[C@@H]1CCCN(S(=O)(=O)c2ccccn2)CC1=O` (stereo in doubt) [Example 36, 5-(4-Nitro-phenyl)-furan-2-carboxylic acid {(S)-3-methyl-1-[3-oxo-1-(pyridine-2-sulfonyl)-azepan-4-ylcarbamoyl]-butyl}amide] the figure was 9.1 nM; with `CC(C)C[C@@H](NC(=O)c1cc2sccc2s1)C(=O)N[C@@H]1CCCN(S(=O)(=O)c2cccc[n+]2[O-])CC1=O` [Example 62, Thieno[3,2-b]thiophene-2-carboxylic acid {(S)-3-methyl-1-[3-oxo-1-(1-oxy-pyridine-2-sulfonyl)-azepan-4-ylcarbamoyl]-butyl}amide], 5.3 nM; with `Cc1coc(C(=O)N[C@@H](CC(C)C)C(=O)N[C@H]2CCCN(C(=O)Nc3ccccc3F)CC2=O)c1` [Example 222, 4-Methyl-furan-2-carboxylic acid {(S)-1-[1-(2-fluoro-phenylcarbamoyl)-3-oxo-azepan-4-ylcarbamoyl]-3-methyl-butyl}-amide], 4.9 nM. The same measure, in the same setting: the figure for `O=C(N[C@H](CC1CCCCC1)C(=O)N[C@@H]1CCCN(S(=O)(=O)c2ccccn2)CC1=O)c1cc2ccccc2o1` (stereo in doubt) [Example 102, Benzofuran-2-carboxylic acid {(S)-2-cyclohexyl-1-[3-oxo-1-(pyridine-2-sulfonyl)-azepan-4-ylcarbamoyl]-ethyl}-amide] is 3.7 nM. The molecule `CC(C)C[C@H](NC(=O)c1cc2ccccc2o1)C(=O)N[C@@H]1CCCN(S(C)(=O)=O)CC1=O` [Example 112, Benzofuran-2-carboxylic acid-{(S)-1-(1-methanesulfonyl-3-oxo-azepan-4-ylcarbamoyl)-3-methyl-butyl]-amide] showed a Ki of 8.5 nM. `CC(C)C[C@H](NC(=O)c1cnc2ccccc2n1)C(=O)N[C@H]1CCCN(S(=O)(=O)c2nccs2)CC1=O` [Example 129, Quinoxaline-2-carboxylic acid {(S)-3-methyl-1-[3-oxo-1-(thiazole-2-sulfonyl)-azepan-4-ylcarbamoyl]-butyl}amide] returned a Ki of 5.6 nM. As to `CC(C)C[C@@H](NC(=O)c1ccc(-c2cccc(C(F)(F)F)c2)o1)C(=O)NC1CCCN(C(=O)c2cccc[n+]2[O-])CC1=O` (stereo partly drawn) [Example 186, 5-(3-Trifluoromethyl-phenyl)-furan-2-carboxylic acid ((S)-3-methyl-1-{3-oxo-1[-1-(1-oxy-pyridin-2-yl)-methanoyl]-azepan-4-ylcarbamoyl}-butyl)-amide], the Ki was 11 nM. `CC(C)C[C@H](NC(=O)c1ccc(-c2ccc(Cl)cc2)o1)C(=O)N[C@@H]1CCCN(S(=O)(=O)c2ccccn2)CC1=O` [Example 65, 5-(4-Chloro-phenyl)-furan-2-carboxylic acid {(S)-3-methyl-1-[3-oxo-1-(pyridine-2-sulfonyl)-azepan-4-ylcarbamoyl]-butyl}amide] showed a Ki of 8.1 nM. On the same count and under the same terms, with `CC(C)C[C@H](NC(=O)c1nc(-c2ccccc2)oc1C(F)(F)F)C(=O)NC1CCCN(S(=O)(=O)c2ccccn2)CC1=O` (stereo partly drawn) [Example 72, 2-Phenyl-5-trifluoromethyl-oxazole-4-carboxylic acid {(S)-3-methyl-1-[3-oxo-1-(pyridine-2-sulfonyl)-azepan-4-ylcarbamoyl]-butyl}amide] the figure was 9.9 nM; with `COc1ccc2c(C)c(C(=O)N[C@@H](CC(C)C)C(=O)N[C@H]3CCN(S(=O)(=O)c4cccc[n+]4[O-])CCC3=O)oc2c1` [Example 204, 6-Methoxy-3-methyl-benzofuran-2-carboxylic acid {(S)-3-methyl-1-[3-oxo-1-(1-oxy-pyridine-2-sulfonyl)-azepan-4-ylcarbamoyl]-butyl}-amide], 4.5 nM.
